Source: patent publication US20040163143A1, “Method for efficiently producing transgenic plant using auxin precursor” (NIPPON PAPER INDUSTRIES CO., LTD., priority 2002, published 2004)

Assays:
[1] = tested on: stem sections of a high rooting clone of E. globulus; assay: gene introduction test on high rooting clone of E. globulus, vector pIAH6, GUS staining; type: cell-based, Eucalyptus globulus; settings: NAM 1 μM
Method: Definite buds of a high rooting clone of E. globulus from Chile were aseptically grown using a medium prepared by adding 0.5 mg/l zeatin to the Y basal medium of Example 2, and the elongated stems were cut into sections of 5 mm to be used as samples for gene introduction and infected with the plasmid pIAH6-introduced Agrobacterium in the same manner as in Example 1. The sections after infection culturing were put on an EG basal agar medium (agar 8.5 g/l) supplemented with 500 mg/l ticarcillin and 1 μM of an auxin precursor analogue NAM, and the culturing was continued at 25° C. under light conditions of 30 to 40 μmol/m^2/s in light intensity while sub-culturing at an interval of 2 weeks using the same medium. Four months after the Agrobacterium infection, the redifferentiated adventitious buds were subjected to a GUS staining test in accordance with the above method of Jefferson et al., and the degree of formation of desired gene-introduced adventitious buds was judged.

[2] = tested on: E. globulus hypocotyl sections; assay: E. globulus gene introduction test, vector pIAH6 (ipt + iaaH + GUS), adventitious bud redifferentiation and GUS staining; type: cell-based, Eucalyptus globulus; settings: for B Adventitious bud differentiated (number of sections): 3 months after infection; for B/A Redifferentiation ratio / C/A Gene introduction ratio / C/B Selection efficiency: section basis
Method: Using a plasmid pIAH6 as a vector having a GUS gene as a model of a desired gene and an ipt gene and an iaaH gene as selectable marker genes, a transformant was produced by carrying out gene introduction into Eucalyptus globulus (hereinafter referred to as “E. globulus”) by the method of the present invention. Seeds of E. globulus from Chile were sterilized by soaking in 70% ethanol for about 1 minute and then soaking with stirring in a 2% aqueous sodium hypochlorite solution for about 4 hours, washed thoroughly with sterile water, inoculated on an MS agar medium to which 0.5 mg/l zeatin had been added and stored in a refrigerator at 4° C. for 2 days to accelerate germination, and then the germination was carried out by culturing at 25° C. under light conditions of about 10 μmol/m^2/s in light intensity. One to two weeks after the inoculation of the seeds onto the germination medium, hypocotyls were collected by cutting out apical buds, cotyledons and roots of the germinated seedlings, and the hypocotyls were cut into sections of about 5 mm to be used as samples for gene introduction and subjected to the following test. A. tumefaciens EHA105 introduced with the plasmid pIAH6 in the above item I was cultured overnight in the YEB liquid medium and then diluted to OD630 =0.5 with EG basal medium, and the sections of hypocotyl prepared in the above were soaked in the cell suspension. Next, each of the sections after removing excess cell suspension was co-cultured with Agrobacterium on an agar medium (agar 8.5 g/l) prepared by adding 1.0 mg/l zeatin, 0.05 mg/l NAA and 40 mg/l acetosyringone to the EG basal medium, at 25° C. for 3 days in the dark to thereby infect each section with the pIAH6-introduced Agrobacterium. In this case, a modified MS medium having an ammonia nitrogen/nitrate nitrogen concentration ratio of 1:3 (5 mM NH4, 15 mM NO3) was supplemented with 20 g/l sucrose and used as the EG basal medium. The sections after infection culturing were put on an EG basal agar medium (agar 8.5 g/l) supplemented with 500 mg/l ticarcillin and 1 μM or 10 μM of an auxin precursor analogue NAM, and the culturing was continued at 25° C. under light conditions of 30 to 40 μmol/m^2/s in light intensity while sub-culturing at an interval of 2 weeks using the same medium. Among these sections, the quicker ones redifferentiated adventitious buds after about 2 months of the Agrobacterium infection. Three months after the Agrobacterium infection, in order to examine expression of the GUS gene used as a model of the desired gene, the redifferentiated adventitious buds were subjected to a GUS staining test in accordance with the method of Jefferson et al. (Plant Mol. Biol. Rep., 5: 387-405 (1987)), and the degree of formation of desired gene-introduced adventitious buds was judged by examining the number of stained adventitious buds (the number of adventitious buds expressing the desired gene). An E. globulus gene introduction test was carried out in the same manner as in Example 1, except that the hypocotyl sections after the Agrobacterium infection were cultured using the EG basal agar medium (agar 8.5 g/l) supplemented with 500 mg/l ticarcillin and 0 μM, 1 μM or 10 μM NAA as auxin.

[3] = NAM 1 μM in medium, 60 sections tested
[4] = NAM 10 μM in medium, 48 sections tested

In the case of `NC(=O)Cc1cccc2ccccc12` [NAM, naphthaleneacetic acid amide], the “sections whose buds had the desired gene introduced (GUS staining)” value ([1]; among 40 stem sections) is reported as 3 sections, the “sections from which adventitious buds were differentiated” value ([1]; among 40 stem sections, 4 months after infection) is reported as 5 sections and the “gene introduction ratio into adventitious buds” value ([1]; section basis) is reported as 7.5%. The “redifferentiation ratio of adventitious buds” value ([1]; section basis) was 12.5%, the selection efficiency ([1]; section basis) was 60.0% and the “C GUS + adventitious bud differentiated (number of sections)” value [2, 3] was 8 number of sections. For the same compound, the “B Adventitious bud differentiated (number of sections)” value [2, 3] was 21 number of sections, the “B/A Redifferentiation ratio” value ([2]; NAM 1 μM in medium) was 35.0% and the “C/A Gene introduction ratio” value ([2]; NAM 1 μM in medium) was 13.3%. The “C/B Selection efficiency” value ([2]; NAM 1 μM in medium) was 38.1%, the “C GUS + adventitious bud differentiated (number of sections)” value [2, 4] was 1 number of sections and the “B Adventitious bud differentiated (number of sections)” value [2, 4] was 2 number of sections. The “B/A Redifferentiation ratio” value ([2]; NAM 10 μM in medium) was 4.2%, the “C/A Gene introduction ratio” value ([2]; NAM 10 μM in medium) was 2.1% and the “C/B Selection efficiency” value ([2]; NAM 10 μM in medium) was 50.0%.
